# From ChEMBL document CHEMBL5608246, “Membrane-Targeting Amphiphilic Honokiol Derivatives Containing an Oxazole Moiety as Potential Antibacterials against Methicillin-Resistant Staphylococcus aureus” (J Med Chem, 2024)
# Activity calls are given as the source filed them. No cut-off for these calls is given here.
# Assays:
# Staphylococcus aureus [1] = experiment: Antibacterial activity against Staphylococcus aureus ATCC 29213 incubated for 16 to 18 hrs by broth dilution method; format: functional; settings: time 16-18 hrs
# Staphylococcus aureus [2] = experiment: Antibacterial activity against methicillin resistant Staphylococcus aureus N315 incubated for 16 to 18 hrs by broth dilution method; format: functional; settings: time 16-18 hrs
# Staphylococcus aureus [3] = experiment: Antibacterial activity against methicillin resistant Staphylococcus aureus M12 incubated for 16 to 18 hrs by broth dilution method; format: functional; settings: time 16-18 hrs
# Staphylococcus aureus [4] = experiment: Antibacterial activity against methicillin resistant Staphylococcus aureus M13 incubated for 16 to 18 hrs by broth dilution method; format: functional; settings: time 16-18 hrs
# Staphylococcus aureus [5] = experiment: Antibacterial activity against methicillin resistant Staphylococcus aureus M14 incubated for 16 to 18 hrs by broth dilution method; format: functional; settings: time 16-18 hrs
# Staphylococcus aureus [6] = experiment: Antibacterial activity against methicillin resistant Staphylococcus aureus M17 incubated for 16 to 18 hrs by broth dilution method; format: functional; settings: time 16-18 hrs
# Staphylococcus aureus [7] = experiment: Antibacterial activity against methicillin resistant Staphylococcus aureus M20 incubated for 16 to 18 hrs by broth dilution method; format: functional; settings: time 16-18 hrs
# Staphylococcus aureus [8] = experiment: Antibacterial activity against methicillin resistant Staphylococcus aureus M22 incubated for 16 to 18 hrs by broth dilution method; format: functional; settings: time 16-18 hrs
# Staphylococcus aureus [9] = experiment: Antibacterial activity against Staphylococcus aureus ATCC 29213 after 20 passages incubated for 16 to 18 hrs; format: functional; settings: time 16-18 hrs
# Cell membrane [10] = experiment: Induction of membrane disruption in methicillin resistant Staphylococcus aureus 20 assessed as membrane rupture at 16 times MIC incubated for 4 hrs by SEM analysis
# Cell membrane [11] = experiment: Induction of membrane disruption in methicillin resistant Staphylococcus aureus 20 assessed as wrinkled membrane at 16 times MIC incubated for 4 hrs by SEM analysis; format: cell membranes
# Cell membrane [12] = experiment: Induction of membrane disruption in methicillin resistant Staphylococcus aureus 20 at 16 ug/ml incubated for 4 hrs by DAPI/PI staining based laser confocal microscopic analysis; settings: dose 16.0 µg/ml
# Cell membrane [13] = experiment: Induction of membrane depolarization in methicillin resistant Staphylococcus aureus 20 assessed as fold increase in fluorescence intensity at 32 times MIC measured at 2 mins interval over 20 mins by DiSC3(5) staining based assay relative to control; format: cell membranes
# Staphylococcus aureus [14] = experiment: Antibacterial activity against methicillin resistant Staphylococcus aureus 20 incubated for 16 to 18 hrs in presence of 2 to 64 ug/ml phosphatidylethanolamine by checkerboard broth dilution method; format: functional, organism-based; settings: time 16-18 hrs
# Staphylococcus aureus [15] = experiment: Antibacterial activity against methicillin resistant Staphylococcus aureus 20 incubated for 16 to 18 hrs in presence of 2 to 64 ug/ml peptidoglycan by checkerboard broth dilution method; format: functional, organism-based; settings: time 16-18 hrs
# Staphylococcus aureus [16] = experiment: Upregulation of cidA gene expression in methicillin resistant Staphylococcus aureus N315 at 4 ug/ml incubated for 4 hrs by RNA-sequencing analysis; format: functional; settings: dose 4.0 µg/ml
# Staphylococcus aureus [17] = experiment: Upregulation of gpsB gene expression in methicillin resistant Staphylococcus aureus N315 at 4 ug/ml incubated for 4 hrs by RNA-sequencing analysis; format: functional; settings: dose 4.0 µg/ml
# Staphylococcus aureus [18] = experiment: Downregulation of sasA gene expression in methicillin resistant Staphylococcus aureus N315 at 4 ug/ml incubated for 4 hrs by RNA-sequencing analysis; format: functional; settings: dose 4.0 µg/ml
# Staphylococcus aureus [19] = experiment: Inhibition of transcription in methicillin resistant Staphylococcus aureus N315 at 4 ug/ml incubated for 4 hrs by RNA-sequencing analysis; format: functional, organism-based; settings: dose 4.0 µg/ml
# Staphylococcus aureus [20] = experiment: Disruption of redox process in methicillin resistant Staphylococcus aureus N315 at 4 ug/ml incubated for 4 hrs by RNA-sequencing analysis; format: functional, organism-based; settings: dose 4.0 µg/ml
# Staphylococcus aureus [21] = experiment: Inhibition of arginine synthesis in methicillin resistant Staphylococcus aureus N315 at 4 ug/ml incubated for 4 hrs by RNA-sequencing analysis; format: functional, organism-based; settings: dose 4.0 µg/ml
# Staphylococcus aureus [22] = experiment: Inhibition of lysine synthesis in methicillin resistant Staphylococcus aureus N315 at 4 ug/ml incubated for 4 hrs by RNA-sequencing analysis; format: functional, organism-based; settings: dose 4.0 µg/ml
# [23] = Toxicity in Kunming mouse assessed as effect on survival at 5 to 80 mg/kg, sc measured after 24 hrs; format: organism-based; settings: in vivo, dose 5-80 mg/kg
# [24] = Toxicity in Kunming mouse assessed as skin redness at 40 to 80 mg/kg, sc measured after 24 hrs; format: organism-based; settings: in vivo, dose 40-80 mg/kg
# [25] = Toxicity in Kunming mouse assessed as change in red blood cell counts at 20 mg/kg, sc measured after 24 hrs; format: organism-based; settings: in vivo
# [26] = Toxicity in Kunming mouse assessed as change in hematocrit level at 20 mg/kg, sc measured after 24 hrs; format: organism-based; settings: in vivo
# [27] = Toxicity in Kunming mouse assessed as change in urea level at 20 mg/kg, sc measured after 24 hrs; format: organism-based; settings: in vivo
# [28] = Toxicity in Kunming mouse assessed as skin abnormalities at 20 mg/kg, sc measured after 24 hrs; format: organism-based; settings: in vivo
# [29] = Toxicity in Kunming mouse assessed as heart abnormalities at 10 mg/kg, sc measured after 24 hrs; format: organism-based; settings: in vivo
# [30] = Toxicity in Kunming mouse assessed as liver abnormalities at 10 mg/kg, sc measured after 24 hrs; format: organism-based; settings: in vivo
# [31] = Toxicity in Kunming mouse assessed as lung abnormalities at 10 mg/kg, sc measured after 24 hrs; format: organism-based; settings: in vivo
# [32] = Toxicity in Kunming mouse assessed as kidney abnormalities at 10 mg/kg, sc measured after 24 hrs; format: organism-based; settings: in vivo
# Staphylococcus aureus [33] = experiment: Antibacterial activity against methicillin resistant Staphylococcus aureus 20 infected in Kunming mouse skin abscess model assessed as appearance of smooth back skin at 10 mg/kg, sc measured after 2 hrs; format: functional, organism-based
# Staphylococcus aureus [34] = experiment: Antibacterial activity against methicillin resistant Staphylococcus aureus 20 infected in Kunming mouse skin abscess model assessed as reduction in severity of skin abscess at 5 mg/kg, sc measured after 2 hrs; format: functional, organism-based
# Staphylococcus aureus [35] = experiment: Antibacterial activity against methicillin resistant Staphylococcus aureus 20 infected in Kunming mouse skin abscess model assessed as reduction in inflammatory cells in infection sites at 5 to 10 mg/kg, sc measured after 2 hrs; format: functional, organism-based; settings: dose 5-10 mg/kg
# Staphylococcus aureus [36] = experiment: Antibacterial activity against methicillin resistant Staphylococcus aureus 20 infected in Kunming mouse skin abscess model assessed as reduction in inflammatory cell infiltration in dermal layer at 10 mg/kg, sc measured after 2 hrs; format: functional, organism-based
# Staphylococcus aureus [37] = experiment: Antibacterial activity against methicillin resistant Staphylococcus aureus 20 infected in Kunming mouse skin abscess model assessed as reduction in bacterial load at 10 mg/kg, sc measured after 2 hrs; format: functional; parameters: scale not given: the % may be the effect or the level left
# [38] = Toxicity in Kunming mouse skin abscess model infected with methicillin resistant Staphylococcus aureus assessed as liver damage at 5 to 10 mg/kg, sc measured after 2 hrs by H and E staining based assay; format: organism-based; settings: in vivo, dose 5-10 mg/kg
# [39] = Toxicity in Kunming mouse skin abscess model infected with methicillin resistant Staphylococcus aureus assessed as spleen damage at 5 to 10 mg/kg, sc measured after 2 hrs by H and E staining based assay; format: organism-based; settings: in vivo, dose 5-10 mg/kg
# [40] = Toxicity in Kunming mouse skin abscess model infected with methicillin resistant Staphylococcus aureus assessed as kidney damage at 5 to 10 mg/kg, sc measured after 2 hrs by H and E staining based assay; format: organism-based; settings: in vivo, dose 5-10 mg/kg
# Cell membrane [41] = experiment: Induction of membrane disruption in methicillin resistant Staphylococcus aureus 20 assessed as viable cells with intact membrane at 8 ug/ml incubated for 2 hrs by SYTO9/PI staining based flow cytometry analysis (reference value: 98.7%); format: cell membranes; settings: dose 8.0 µg/ml
# Cell membrane [42] = experiment: Induction of membrane disruption in methicillin resistant Staphylococcus aureus 20 assessed as increase in red fluorescence signal incubated for 2 hrs by SYTO9/PI staining based flow cytometry analysis; settings: dose 8-128 µg/ml
compound,measurement,setting,value
C=CCc1cc(-c2ccc(OCCC[N+](C)(C)CC(=O)NCCCC)c(CC=C)c2)c2oc(-c3c(Cl)cccc3Cl)nc2c1.[Br-],MIC,Staphylococcus aureus [1],2 µg/mL
same,MIC,Staphylococcus aureus [2],4 µg/mL
same,MIC,Staphylococcus aureus [3],4 µg/mL
same,MIC,Staphylococcus aureus [4],8 µg/mL
same,MIC,Staphylococcus aureus [5],2 µg/mL
same,MIC,Staphylococcus aureus [6],2 µg/mL
same,MIC,Staphylococcus aureus [7],2 µg/mL
same,MIC,Staphylococcus aureus [8],2 µg/mL
same,MIC,Staphylococcus aureus [9],2 µg/mL
same,Activity,Cell membrane [10],Active
same,Activity,Cell membrane [11],Active
same,Activity,Cell membrane [12],Active
same,fold change (FC),Cell membrane [13],8
same,Activity,Staphylococcus aureus [14],Active
same,Activity,Staphylococcus aureus [15],Active
same,Activity,Staphylococcus aureus [16],Active
same,Activity,Staphylococcus aureus [17],Active
same,Activity,Staphylococcus aureus [18],Active
same,inhibition,Staphylococcus aureus [19],Active
same,Activity,Staphylococcus aureus [20],Active
same,inhibition,Staphylococcus aureus [21],Active
same,inhibition,Staphylococcus aureus [22],Active
same,Activity,[23],Non-Toxic
same,Activity,[24],Toxic
same,Activity,[25],Non-Toxic
same,Activity,[26],Non-Toxic
same,Activity,[27],Non-Toxic
same,Activity,[28],Non-Toxic
same,Activity,[29],Non-Toxic
same,Activity,[30],Non-Toxic
same,Activity,[31],Non-Toxic
same,Activity,[32],Non-Toxic
same,Activity,Staphylococcus aureus [33],Active
same,Activity,Staphylococcus aureus [34],Active
same,Activity,Staphylococcus aureus [35],Active
same,Activity,Staphylococcus aureus [36],Active
same,Activity,Staphylococcus aureus [37],96.63%
same,Activity,[38],Non-Toxic
same,Activity,[39],Non-Toxic
same,Activity,[40],Non-Toxic
same,Activity,Cell membrane [41],61.6%
same,Activity,Cell membrane [42],Dose-Dependent Effect
